Tests used:
Assay type in all cases: biochemical
[1] = target: T1, FAAH-flag (Mus musculus, UniProt O08914); assay: hydrolysis, LC-MS; conditions: 100 µM substrate, 100 µg lysate protein, PBS, 1 hr 37°C
T1 construct: C-terminal flag tag, transient transfection in HEK293T, cell lysate
T1 sequence (O08914 1-579): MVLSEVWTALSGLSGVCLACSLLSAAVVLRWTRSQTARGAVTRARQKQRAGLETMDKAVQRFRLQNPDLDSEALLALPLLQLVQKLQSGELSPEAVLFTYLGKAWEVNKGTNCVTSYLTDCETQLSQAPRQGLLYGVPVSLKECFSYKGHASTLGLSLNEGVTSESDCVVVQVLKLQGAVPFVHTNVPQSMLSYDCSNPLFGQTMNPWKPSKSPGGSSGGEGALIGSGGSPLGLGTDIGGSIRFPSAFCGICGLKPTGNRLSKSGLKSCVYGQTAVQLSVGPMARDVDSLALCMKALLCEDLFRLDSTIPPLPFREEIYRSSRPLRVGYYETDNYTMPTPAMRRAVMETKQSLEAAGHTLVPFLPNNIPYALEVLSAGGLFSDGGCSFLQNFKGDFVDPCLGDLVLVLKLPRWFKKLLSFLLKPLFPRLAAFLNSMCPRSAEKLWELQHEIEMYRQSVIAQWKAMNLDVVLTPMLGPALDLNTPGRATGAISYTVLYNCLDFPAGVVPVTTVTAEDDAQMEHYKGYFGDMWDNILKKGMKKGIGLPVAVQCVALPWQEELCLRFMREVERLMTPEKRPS

[2] = target: T2, PM20D1-flag (Mus musculus, UniProt Q8C165); assay: hydrolysis, LC-MS; conditions: 100 µM substrate, 100 µg conditioned medium protein, PBS, 1 hr 37°C
T2 construct: flag-tagged, secreted, conditioned medium of transfected HEK293T cells
T2 sequence (Q8C165 25-503): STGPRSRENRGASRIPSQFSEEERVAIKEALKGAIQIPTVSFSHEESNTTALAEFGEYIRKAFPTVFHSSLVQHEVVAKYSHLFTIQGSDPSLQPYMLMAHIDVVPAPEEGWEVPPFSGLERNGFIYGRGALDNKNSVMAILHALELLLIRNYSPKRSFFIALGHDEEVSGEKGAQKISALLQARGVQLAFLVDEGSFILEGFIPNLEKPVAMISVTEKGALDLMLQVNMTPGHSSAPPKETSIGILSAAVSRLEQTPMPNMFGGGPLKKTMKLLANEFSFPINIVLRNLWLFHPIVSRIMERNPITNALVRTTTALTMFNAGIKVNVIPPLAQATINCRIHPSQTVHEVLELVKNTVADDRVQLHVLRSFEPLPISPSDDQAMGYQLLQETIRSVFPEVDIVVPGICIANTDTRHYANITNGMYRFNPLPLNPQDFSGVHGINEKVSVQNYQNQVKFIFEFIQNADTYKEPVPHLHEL

[3] = target: T2, PM20D1-flag; assay: condensation with amino acid (synthase direction), LC-MS; conditions: co-substrates Gly, Ser or Phe; PBS, 1 hr 37°C

| Structure (SMILES) | hydrolysis, LC-MS [1] | other results |
| --- | --- | --- |
| CCCCC/C=C\C/C=C\C/C=C\C/C=C\CCCC(=O)N[C@@H](CO)C(=O)O [C20:4-Ser] | A strong preference was observed for C20:4-Ser over the other three N-acyl amino acid substrates |  |
| CCCCC/C=C\C/C=C\C/C=C\C/C=C\CCCC(=O)NCCO [anandamide] | FAAH showed robust hydrolysis activity with anandamide as a substrate |  |
| CCCCC/C=C\C/C=C\C/C=C\C/C=C\CCCC(=O)NCC(=O)O [C20:4-Gly] |  | hydrolysis, LC-MS [2]: PM20D1 exhibited robust hydrolysis activity only on C20:4-Gly |
| CCCCC/C=C\C/C=C\C/C=C\C/C=C\CCCC(=O)O [arachidonic acid] |  | condensation with amino acid (synthase direction), LC-MS [3]: PM20D1 also efficiently catalyzed the condensation of arachidonic acid with all three |

Reference: publication PMC7145423, “Cooperative enzymatic control of N-acyl amino acids by PM20D1 and FAAH” (eLife, 2020)
